Reference: PubChem BioAssay AID328 (DTP/NCI, 2004)
Where “and” joins values, the source holds several entries; their conditions need not be identical. Identical values can stand only once. Inconclusive results and toxic doses are left out.

System: BDF1 mice, P388 leukemia ip, median survival T/C
Test: NCI In Vivo Anticancer Drug Screen. Data for tumor model P388 Leukemia (intraperitoneal) in B6D2F1 (BDF1) mice
Settings: endpoint: median survival time, higher = longer survival
Summary of the method: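 Survival ratio, drug arm over vehicle arm, in mice with a transplanted tumour.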

[1] = dose: 50.0 mg/kg/injection, schedule: Q01DX009 (ip), vehicle: Klucel (hydroxypropylcellulose) (HPC)
[2] = dose: 100.0 mg/kg/injection, schedule: Q01DX009 (ip), vehicle: Klucel (hydroxypropylcellulose) (HPC)
[3] = dose: 200.0 mg/kg/injection, schedule: Q04DX003 (ip), vehicle: saline with Tween-80
[4] = dose: 400.0 mg/kg/injection, schedule: Q04DX003 (ip), vehicle: saline with Tween-80
[5] = dose: 100.0 mg/kg/injection, schedule: Q04DX003 (ip), vehicle: saline with Tween-80
[6] = dose: 6.25 mg/kg/injection, schedule: Q01DX009 (ip), vehicle: saline with Tween-80
[7] = dose: 12.5 mg/kg/injection, schedule: Q01DX009 (ip), vehicle: saline with Tween-80
[8] = dose: 25.0 mg/kg/injection, schedule: Q01DX009 (ip), vehicle: saline with Tween-80
[9] = dose: 50.0 mg/kg/injection, schedule: Q01DX009 (ip), vehicle: saline with Tween-80
[10] = dose: 200.0 mg/kg/injection, schedule: Q01DX009 (ip), vehicle: saline with Tween-80
[11] = dose: 100.0 mg/kg/injection, schedule: Q01DX001 (ip), vehicle: saline with Tween-80
[12] = dose: 400.0 mg/kg/injection, schedule: Q01DX001 (ip), vehicle: saline with Tween-80
[13] = dose: 25.0 mg/kg/injection, schedule: Q01DX009 (ip), vehicle: saline
[14] = dose: 50.0 mg/kg/injection, schedule: Q01DX009 (ip), vehicle: saline
[15] = dose: 200.0 mg/kg/injection, schedule: Q01DX009 (ip), vehicle: Klucel (hydroxypropylcellulose) (HPC)

O=C(/C=C(\CN1CCCCC1)c1ccccc1)c1ccccc1
T/C (dose: 25.0 mg/kg/injection, schedule: Q01DX009 (ip), vehicle: Klucel (hydroxypropylcellulose) (HPC)): 100 % of control | T/C (dose: 25.0 mg/kg/injection, schedule: Q04DX003 (ip), vehicle: Klucel (hydroxypropylcellulose) (HPC)): 91 % of control | T/C [1]: 104 % of control | T/C (dose: 50.0 mg/kg/injection, schedule: Q04DX003 (ip), vehicle: Klucel (hydroxypropylcellulose) (HPC)): 104 % of control | T/C [2]: 109 % of control | T/C (dose: 100.0 mg/kg/injection, schedule: Q04DX003 (ip), vehicle: Klucel (hydroxypropylcellulose) (HPC)): 108 % of control

Cc1nc(N)c2nc(SCc3ccc(Cl)cc3)c(N)nc2n1
T/C [3]: 86 % of control | T/C [4]: 97 % of control

O=[N+]([O-])c1ccc2nnn(OC3CCCC3)c2c1
T/C [5]: 98 % of control | T/C [3]: 101 % of control | T/C [4]: 88 % of control

CSc1nc(SC)c2[nH]cnc2n1
T/C (dose: 3.13 mg/kg/injection, schedule: Q01DX009 (ip), vehicle: saline with Tween-80): 87 % of control | T/C [6]: 99 % of control | T/C [7]: 91 % of control | T/C [8]: 94 % of control

CCOC(=O)N1CCN(C(=O)OCC)CC1
T/C [9]: 100 % of control | T/C (dose: 100.0 mg/kg/injection, schedule: Q01DX009 (ip), vehicle: saline with Tween-80): 100 % of control | T/C [5]: 90 % of control | T/C [10]: 95 % of control

CC1(C)C(N2CCOCC2)C(c2ccccc2)S1(=O)=O (stereo unspecified)
T/C [11]: 100 % of control | T/C [12]: 95 % of control

COC(=O)C1SCc2ccccc2C1=O (stereo unspecified)
T/C [5]: 104 % of control | T/C [3]: 105 % of control | T/C [4]: 105 % of control

CC(=O)CC(C)(C)N
T/C [13]: 95 % of control | T/C [14]: 104 % of control

Nc1ccccc1-c1ccc([N+](=O)[O-])cc1
T/C [11]: 95 % of control | T/C (dose: 200.0 mg/kg/injection, schedule: Q01DX001 (ip), vehicle: saline with Tween-80): 100 % of control | T/C [12]: 91 % of control

FC(F)(F)c1cc(NC(=S)N2c3ccccc3-n3cccc3C2c2cccnc2)cc(C(F)(F)F)c1 (stereo unspecified)
T/C [1]: 97 % of control | T/C [2]: 89 % of control | T/C [15]: 91 % of control

CCCCCCCCCCSc1ncnc2nc[nH]c12
T/C [9]: 87 % of control | T/C [5]: 100 % of control | T/C [10]: 108 % of control | T/C [3]: 100 % of control

C[N+](C)(C)CC[N+](C)(C)C
T/C (dose: 100.0 mg/kg/injection, schedule: Q01DX009 (ip), vehicle: saline): 93 % of control | T/C (dose: 100.0 mg/kg/injection, schedule: Q04DX003 (ip), vehicle: saline): 93 % of control | T/C (dose: 200.0 mg/kg/injection, schedule: Q01DX009 (ip), vehicle: saline): 101 % of control | T/C (dose: 200.0 mg/kg/injection, schedule: Q04DX003 (ip), vehicle: saline): 118 % of control | T/C (dose: 400.0 mg/kg/injection, schedule: Q01DX009 (ip), vehicle: saline): 93 % of control | T/C (dose: 400.0 mg/kg/injection, schedule: Q04DX003 (ip), vehicle: saline): 107 % of control

O=S(=O)(C1=CCCCC1)C1=CCCCC1
T/C (dose: 25.0 mg/kg/injection, schedule: Q04DX003 (ip), vehicle: saline with Tween-80): 104 % of control | T/C (dose: 50.0 mg/kg/injection, schedule: Q04DX003 (ip), vehicle: saline with Tween-80): 99 % of control | T/C [5]: 88 % of control and 100 % of control

COC(=O)C(Br)C(OC)c1ccccc1 (stereo unspecified)
T/C [2]: 91 % of control | T/C [15]: 95 % of control | T/C (dose: 400.0 mg/kg/injection, schedule: Q01DX009 (ip), vehicle: Klucel (hydroxypropylcellulose) (HPC)): 95 % of control

CO[C@@]12[C@H](COC(N)=O)C3=C(C(=O)C(C)=C(N)C3=O)N1C[C@H]1[C@@H]2N1C(=O)[C@@H]1N2C(=O)[C@@H](NC(=O)Cc3ccccc3)[C@H]2SC1(C)C
T/C (dose: 12.5 mg/kg/injection, schedule: Q01DX009 (ip), vehicle: saline): 151 % of control | T/C [13]: 160 % of control | T/C [14]: 210 % of control

CN(C)C(c1ccccc1)C(CBr)C(=O)c1ccc(Br)cc1 (stereo unspecified)
T/C (dose: 6.25 mg/kg/injection, schedule: Q01DX009 (ip), vehicle: saline): 110 % of control | T/C (dose: 16.5 mg/kg/injection, schedule: Q01DX009 (ip), vehicle: saline): 109 % of control and 116 % of control | T/C [13]: 100 % of control and 118 % of control | T/C (dose: 27.5 mg/kg/injection, schedule: Q04DX003 (ip), vehicle: saline): 104 % of control | T/C (dose: 37.5 mg/kg/injection, schedule: Q01DX009 (ip), vehicle: saline): 113 % of control and 120 % of control | T/C (dose: 55.0 mg/kg/injection, schedule: Q04DX003 (ip), vehicle: saline): 100 % of control

COc1ccc2c(c1OC(C)=O)-c1cc(OC(C)=O)cc3c1C(C2)N(C(=O)CBr)CC3 (stereo unspecified)
T/C [6]: 105 % of control | T/C [7]: 106 % of control | T/C [8]: 116 % of control | T/C [9]: 88 % of control and 114 % of control
